Experimental data as given in US10781470B2, “Diagnosis and treatment of incipient diabetes” (priority 2015, dated 2020).

Tested on: stool alkaline phosphatase (AP)
Test: Stool alkaline phosphatase assay in presence of AP isoform inhibitors
Conditions: stool supernatant; for inhibition of the AP activity in the stool: inhibitor 10 mM, pNPP substrate
Method: Homogenization of stool: The supernatant of a homogenized stool suspension was used for IAP assay. A small amount of stool (milligrams) was measured and then the ‘stool dilution buffer’ (10 mM (millimolar) Tris-HCl, pH 8.0, 1 mM magnesium chloride, 10 μM (micromolar) zinc chloride) at a defined ratio was added. Usually, 50 μl (microliter) of stool dilution buffer was added to 1 mg of stool. The sample was vigorously vortexed to prepare a homogenized stool suspension, which was then centrifuged at 10,000×g for 20 min, and the supernatant containing IAP was collected and assayed for IAP concentration.
Alkaline Phosphatase Assay. The stool supernatant was assayed for alkaline phosphatase (AP) following an established protocol using the automatic biochemistry analyzer mentioned above (Nanjing, Jiangsu, China). In brief, 20 of supernatant was added to 1 ml of enzyme assay buffer (1.25 M diethanolamine (DEA) buffer, pH 10.2, 0.6 mM magnesium chloride) containing 10 mM p-nitrophenyl phosphate (pNPP), and the reaction mixture was incubated for one min at 37° C. followed by measuring the AP concentration by the analyzer pre-calibrated with AP standards. To determine the major isoform among stool APs, prior to assaying for AP activity an aliquot of stool sample was treated for 10 min with L-phenylalanine (L-Phe, 10 mM final conc.), a specific inhibitor of LAP, and another aliquot with L-homoarginine (L-Arg, 10 final conc.), an inhibitor of tissue non-specific alkaline phosphatase (TNAP). Each aliquot treated with an inhibitor was then mixed with the reaction buffer containing an equal concentration (10 mM) of the respective inhibitor, and assayed for AP activity using the analyzer. […] All AP assays were performed by a single laboratory technologist who was blinded to the diagnoses of participants. […]
Stool samples of non-diabetic healthy controls and T2DM patients were homogenized in a stool dilution buffer followed by centrifuging and collection of supernatant. […] Statistics: Values are expressed as mean+/−SEM. […]

| inhibition of the AP activity in the stool (total diabetic (T2DM) population) | inhibition of the AP activity in the stool (total healthy population) | SMILES | inhibitory effect on the stool AP activity (either group (healthy controls and T2DM patients)) |
| --- | --- | --- | --- |
|  |  | N=C(N)NCCCC[C@H](N)C(=O)O [L-Arg, L-homoarginine] | no inhibitory effect |
| approx. 70% | approx. 80% | N[C@@H](Cc1ccccc1)C(=O)O [L-Phe, L-phenylalanine] |  |
